# Test results reported in PubChem BioAssay (NCI).
# Values joined by “and” are separate entries in the source; they are usually repeats but may differ in a detail not shown here. Equal values may be shown once.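 48-hour exposure; five concentrations; linearly interpolated endpoints. The concentration for 50% growth inhibition is given as GI50. TGI is the concentration that stops growth completely.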
# Assays:
# Experiment in all cases: DTP human tumour cell line panel, 48 h
# SK-MEL-28 melanoma = test system: SK-MEL-28 melanoma
# 786-0 renal = test system: 786-0 renal
# UO-31 renal = test system: UO-31 renal
# SN12C renal = test system: SN12C renal
# EKVX NSCLC = test system: EKVX NSCLC
# SR leukemia = test system: SR leukemia
# MALME-3M melanoma = test system: MALME-3M melanoma
# SF-539 CNS = test system: SF-539 CNS
# LOX IMVI melanoma = test system: LOX IMVI melanoma
# M14 melanoma = test system: M14 melanoma
SMILES,GI50 (SK-MEL-28 melanoma),TGI (SK-MEL-28 melanoma),GI50 (786-0 renal),TGI (786-0 renal),GI50 (UO-31 renal),TGI (UO-31 renal),GI50 (SN12C renal),TGI (SN12C renal),GI50 (EKVX NSCLC),TGI (EKVX NSCLC),GI50 (SR leukemia),TGI (SR leukemia),GI50 (MALME-3M melanoma),TGI (MALME-3M melanoma),GI50 (SF-539 CNS),TGI (SF-539 CNS),GI50 (LOX IMVI melanoma),TGI (LOX IMVI melanoma),GI50 (M14 melanoma),TGI (M14 melanoma)
Cn1ccnc1C(=O)/C=C/c1ccc(CC(=O)Nc2ccccc2)cc1,5.69 µM,17.8 µM,2.67 µM,7.86 µM,2.77 µM,5.86 µM,3.84 µM,14.3 µM,6.28 µM,> 25 µM,1.16 µM,18.9 µM,5.93 µM,22 µM,2.43 µM,7.52 µM,1.03 µM,4.27 µM,4.55 µM,10.8 µM
CCCCn1cnc2c(SC)ncnc21,–,> 100 µM,–,> 100 µM,–,> 100 µM,–,> 100 µM,–,> 100 µM,–,94.4 µM,–,> 100 µM,–,> 100 µM,–,> 100 µM,–,> 100 µM
NC(=O)N1N=C2c3ccccc3SC[C@H]2[C@@H]1c1ccccc1,–,52.1 µM,–,> 100 µM,–,82.9 µM,–,> 100 µM,–,> 100 µM,–,> 100 µM,–,> 100 µM,–,–,–,32.4 µM,–,–
COC(=O)C1C2C=CC(C2)N1[C@@H](C)c1ccccc1 (some centres not stated),–,> 100 µM,–,> 100 µM,–,> 100 µM,–,> 100 µM,–,> 100 µM,–,> 100 µM,–,> 100 µM,–,> 100 µM,–,> 100 µM,–,> 100 µM
OCc1ccc(-c2nn(Cc3ccccc3)c3ccccc23)o1,16.9 µM and 15.7 µM,36.5 µM and 47.5 µM,24 µM and 4.69 µM,> 81.6 µM,13.7 µM and 23.8 µM,57.4 µM and > 84.7 µM,15.9 µM and 15.1 µM,35.5 µM and 33.7 µM,18.9 µM and 22.9 µM,72.7 µM and 58.9 µM,12 µM and 4.48 µM,45.2 µM and 39.6 µM,24.3 µM and 21.1 µM,76.3 µM and 55.5 µM,16.2 µM and 18.6 µM,32.2 µM and 35.5 µM,14.6 µM,29.8 µM and 27.7 µM,21.1 µM and 29.2 µM,45.6 µM and > 57.8 µM
COc1ccc2c3c(c(=O)n(C)c2c1OC)C=CC(C)(C)O3,–,> 100 µM,–,> 100 µM,–,63.3 µM,–,54.8 µM,–,> 100 µM,–,24.9 µM,–,> 100 µM,–,> 100 µM,–,> 100 µM,–,> 100 µM
O=C(CSC(=S)N1CCOCC1)Nc1nc2c(s1)CCCC2,–,> 100 µM,–,> 100 µM,–,> 100 µM,–,> 100 µM,–,> 100 µM,–,> 100 µM,–,> 100 µM,–,> 100 µM,–,> 100 µM,–,> 100 µM
C=C1C(=O)O[C@H]2[C@H]1CC/C(COC(=O)N1CCC[C@H]1C(=O)Nc1ccc(OC)c(C(N)=O)c1O)=C\CC[C@@]1(C)O[C@@H]21,2.87 µM,10.2 µM,2.27 µM,6.56 µM,2.11 µM,8.97 µM,2.96 µM,10.3 µM,4 µM,32.9 µM,1.59 µM,12.7 µM,2.42 µM,6.54 µM,2.07 µM,5.76 µM,1.39 µM,3.23 µM,1.89 µM,4.19 µM
CCOC(=O)NN1C(=O)C(=P(c2ccccc2)(c2ccccc2)c2ccccc2)C(C(=O)OCC)=C1C,–,–,–,> 100 µM,–,> 100 µM,–,> 100 µM,–,> 100 µM,–,> 100 µM,–,> 100 µM,–,> 100 µM,–,> 100 µM,–,> 100 µM
CC12CCC(=O)C=C1CCC1C2C(O)CC2(C)C(c3csc(N)n3)CCC12 (configuration not stated),–,> 100 µM,–,> 100 µM,–,> 100 µM,–,> 100 µM,–,> 100 µM,–,> 100 µM,–,> 100 µM,–,> 100 µM,–,> 100 µM,–,> 100 µM
O=C1/C(=C/c2ccc(O)cc2)COc2ccc(-c3ccccc3)cc21,10.1 µM,24.5 µM,12 µM,32.3 µM,4.64 µM,23.4 µM,7.29 µM,24.8 µM,13.4 µM,32.1 µM,1.63 µM,> 28.4 µM,8.38 µM,30.6 µM,13.9 µM,27 µM,3.54 µM,13.3 µM,12.2 µM,39.1 µM
Clc1nc(Cl)c2c(ncn2C/C=C\Cn2cnc3c(Cl)nc(Cl)nc32)n1,1.66 µM,3.02 µM,2.93 µM,10.5 µM,2.08 µM,4.35 µM,1.8 µM,6.14 µM,1.85 µM,3.5 µM,0.218 µM,0.813 µM,2.22 µM,4.2 µM,2.38 µM,5.46 µM,1.36 µM,2.85 µM,2.79 µM,6.92 µM
O=C(CCl)N1c2ccccc2Sc2c1ccc1ccccc21,2.98 µM,7.56 µM,1.82 µM,3.27 µM,1.71 µM,3.8 µM,1.79 µM,3.27 µM,12.5 µM,25.8 µM,2.4 µM,9.55 µM,2.75 µM,7 µM,2.08 µM,4.81 µM,1.12 µM,2.42 µM,1.68 µM,3.53 µM
COC(=O)c1csc(-c2nc(CCNC(=O)OC(C)(C)C)sc2Br)n1,–,> 100 µM,–,> 100 µM,–,> 100 µM,–,> 100 µM,–,> 100 µM,–,> 100 µM,–,> 100 µM,–,> 100 µM,–,–,–,> 100 µM
Nc1nc2c(c(=O)[nH]1)CN(c1ccc(S(N)(=O)=O)cc1)CN2,–,> 100 µM,–,> 100 µM,–,> 100 µM,–,> 100 µM,–,> 100 µM,–,> 100 µM,–,> 100 µM,–,–,–,> 100 µM,–,> 100 µM
COc1ccc(C(C#N)NNc2nc(C)cc(=O)[nH]2)cc1OC (configuration not stated),–,> 100 µM,–,> 100 µM,–,> 100 µM,–,> 100 µM,–,–,–,> 100 µM,–,> 100 µM,–,> 100 µM,–,> 100 µM,–,> 100 µM
CCCCN(Cc1ccc(F)cc1)c1ccc(CO)c(Cl)c1,14.8 µM,28.4 µM,12.2 µM,25.6 µM,10.6 µM,23.6 µM,12.5 µM,25.3 µM,–,–,14.6 µM,34.7 µM,17.7 µM,33.8 µM,17.7 µM,32.6 µM,16.3 µM,31.5 µM,17.5 µM,34.6 µM
